Experiments:
[1] = tested on: A549 Non-Small Cell Lung Cancer (NSCLC) Xenograft; test: A549 non-small cell lung cancer (NSCLC) xenograft model, tumor volume; format: in vivo, SCID mice; conditions: day 28; FGFR1-ECD.339-Fc 15 mg/kg and carboplatin 25 mg/kg i.p. 2x/wk from day 7 x 3 wks; paclitaxel 30 mg/kg i.p. 2x/wk from day 8 x 3 wks
[2] = tested on: H1703 Non-Small Cell Lung Cancer (NSCLC) Xenograft; test: H1703 non-small cell lung cancer (NSCLC) xenograft model, tumor volume; format: in vivo, SCID mice; conditions: day 38; FGFR1-ECD.339-Fc 15 mg/kg i.p. 2x/wk; docetaxel 25 mg/kg i.p. 1x/3 wk x 2 doses
Description: Human non-small cell lung cancer (NSCLC) cell line H1703 was used as the tumor model and was purchased from ATCC (Manassas, Va.; Cat. No. CRL-5889).
Docetaxel was purchased from Toronto Research Chemicals (North York, Ontario, Canada; cat. No. D494420) and formulated in H2O containing 5% Tween 80 and 5% glucose. Docetaxel was administered i.p. at 25 mg/kg (equivalent to about 75 mg/m^2 in a human) once every three weeks for two doses. In combination groups, FGFR1-ECD.339-Fc and docetaxel were either given concurrently or sequentially with FGFR1-ECD.339-Fc given one day before docetaxel or vice versa. Human albumin was purchased from Grifols USA (Los Angeles, Calif.; Cat. No. NDC 61953-0002-1), formulated in PBS at 3 mg/mL and was used as negative control at 300 μg/100 μL/mouse (15 mg/kg).
The tumor volume was measured by external caliper to determine the greatest longitudinal diameter (length) and the greatest transverse diameter (width). The tumor volume was then calculated using the following formula: Tumor volume (mm^3)=(length×width^2)/2

For “FGFR1-ECD.339-Fc: human FGFR1 extracellular domain ending at amino acid 339 fused to an Fc; SEQ ID NO: 6 (mature form)”, the “Fractional tumor volume (FTV), each treatment alone” value [1] was 0.58, the “Fractional tumor volume (FTV), each treatment alone” value [2] was 0.68 and the “Mean Tumor volume mm^3(±SD)” value [2] was 557 (±151) mm^3. For the same substance, the “Tumor growth inhibition (%)” value [2] was 33%.

Source: patent US8951972B2, “FGFR1 extracellular domain combination therapies for lung cancer” (Five Prime Therapeutics, Inc., priority 2010, dated 2015)
